Test results as given in ChEMBL document CHEMBL1147724, “Synthesis and in vitro antileukemic activity of some new 1,3-(oxytetraethylenoxy)cyclotriphosphazene derivatives” (2006).
≈ marks a conversion by molar mass, not a printed value. Calls of active or inactive are those of the source. The rule behind the calls is not given here.

Key:
Format in all cases: functional
[1] = test system: BALB/3T3; assay: Antiproliferative activity against BALB/3T3 cell line by MTT assay at 4 ug/ml; conditions: Mus musculus; for IC50: read-out: ID50 (the source's name)
[2] = test system: MOLT-4; assay: Antiproliferative activity against human MOLT4 cell line by MTT assay at 4 ug/ml; conditions: for IC50: read-out: ID50 (the source's name)
[3] = test system: HL-60; assay: Antiproliferative activity against human HL60 cell line by MTT assay at 4 ug/ml; conditions: for IC50: read-out: ID50 (the source's name)
[4] = test system: L1210; assay: Antiproliferative activity against mouse L1210 cell line by MTT assay at 4 ug/ml; conditions: for IC50: read-out: ID50 (the source's name)
[5] = test system: P388; assay: Antiproliferative activity against mouse P388 cell line by MTT assay at 4 ug/ml; conditions: for IC50: read-out: ID50 (the source's name)

Compound | IC50 [1] [µg/mL] | IC50 [2] [µg/mL] | IC50 [3] [µg/mL] | IC50 [4] [µg/mL] | IC50 [5] [µg/mL] | ID50 [1] | ID50 [2] | ID50 [3] | ID50 [4] | ID50 [5]
O=C1c2ccccc2C(=O)c2c(NCCNP34=NP(Oc5ccccc5/C=N\CCCl)(=NP(Oc5ccccc5/C=N\CCCl)(Oc5ccccc5/C=N\CCCl)=N3)OCCOCCOCCOCCO4)cccc21 (stereo not given) | 9.54 (≈ 8.37 µM) | 3.08 (≈ 2.7 µM) | 2.07 (≈ 1.81 µM) | 2.69 (≈ 2.36 µM) | 2.16 (≈ 1.89 µM) | – | – | – | – | –
O=C1c2ccccc2C(=O)c2c(NCCNP34=NP(Cl)(=NP(Cl)(Cl)=N3)OCCOCCOCCOCCO4)cccc21 (stereo not given) | – | 29.6 (≈ 42.4 µM) | 38.3 (≈ 54.8 µM) | 52.8 (≈ 75.6 µM) | 32.8 (≈ 46.9 µM) | inactive | – | – | – | –
ClCCNP1(NCCCl)=NP2(NCCCl)=NP(NCCCl)(=N1)OCCOCCOCCOCCO2 (stereo not given) | – | – | – | – | – | inactive | inactive | inactive | inactive | inactive
O=C1c2ccccc2C(=O)c2c(NCCNP34=NP(NCCCl)(=NP(NCCCl)(NCCCl)=N3)OCCOCCOCCOCCO4)cccc21 (stereo not given) | – | 27.2 (≈ 32.8 µM) | 18.9 (≈ 22.8 µM) | 29.3 (≈ 35.4 µM) | 19.4 (≈ 23.4 µM) | inactive | – | – | – | –
ClCC/N=C\c1ccccc1OP12=NP(Oc3ccccc3/C=N\CCCl)(Oc3ccccc3/C=N\CCCl)=NP(Oc3ccc4ccccc4c3)(=N1)OCCOCCOCCOCCO2 (stereo not given) | – | 3.11 (≈ 3.05 µM) | 2.89 (≈ 2.84 µM) | 2.43 (≈ 2.39 µM) | 2.7 (≈ 2.65 µM) | inactive | – | – | – | –
O=Cc1ccccc1OP12=NP(Oc3ccccc3C=O)(=NP(Oc3ccccc3C=O)(Oc3ccccc3C=O)=N1)OCCOCCOCCOCCO2 (stereo not given) | 12.1 (≈ 14.9 µM) | 3.2 (≈ 3.94 µM) | 2.7 (≈ 3.33 µM) | 3.2 (≈ 3.94 µM) | 3.2 (≈ 3.94 µM) | – | – | – | – | –
ClCC/N=C\c1ccccc1OP12=NP(Oc3ccccc3/C=N\CCCl)(=NP(Oc3ccccc3/C=N\CCCl)(Oc3ccccc3/C=N\CCCl)=N1)OCCOCCOCCOCCO2 (stereo not given) | 25.3 (≈ 23.9 µM) | 2.1 (≈ 1.99 µM) | 2.9 (≈ 2.74 µM) | 3.2 (≈ 3.03 µM) | 3.2 (≈ 3.03 µM) | – | – | – | – | –
O=Cc1ccccc1OP12=NP(Oc3ccccc3C=O)(Oc3ccccc3C=O)=NP(Oc3ccc4ccccc4c3)(=N1)OCCOCCOCCOCCO2 (stereo not given) | – | 3.09 (≈ 3.71 µM) | 2.81 (≈ 3.37 µM) | 2.75 (≈ 3.3 µM) | 2.55 (≈ 3.06 µM) | inactive | – | – | – | –
O=Cc1ccccc1OP12=NP(Oc3ccccc3C=O)(Oc3ccccc3C=O)=NP(NCCNc3cccc4c3C(=O)c3ccccc3C4=O)(=N1)OCCOCCOCCOCCO2 (stereo not given) | 33.2 (≈ 34.7 µM) | 1.14 (≈ 1.19 µM) | 2.23 (≈ 2.33 µM) | 2.42 (≈ 2.53 µM) | 2.9 (≈ 3.03 µM) | – | – | – | – | –
